Measurements as given in patent US20060069132A1, “Azolecarboxamide herbicides” (priority 2004, published 2006).

Tests used:
[1] = tested on: barnyardgrass; assay: Test B flooded paddy test; format: in vivo, Echinochloa crus-galli; conditions: 1000 g ai/ha, visual rating, scale 0 to 100 (0 no effect, 100 complete control), 13 to 15 days
Procedure, shortened: (§1)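 Visual control ratings, 0–100 versus untreated controls, taken after 13 to 15 days in the greenhouse. Blackgrass received a postemergence spray at the 1- to 4-leaf stage (2–18 cm); ducksalad, umbrella sedge and barnyardgrass were flooded-paddy treated at 2 leaves.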

[2] = tested on: lambsquarters; assay: Test B pre-/postemergence herbicide test; format: in vivo, Chenopodium album
Procedure, shortened: (§2)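 Herbicidal effect was judged by eye on a 0–100 scale after plants stood 13 to 15 days in the greenhouse following pre- or postemergence treatment with surfactant-containing formulations.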

[3] = tested on: wheat; assay: Test B postemergence herbicide test; format: in vivo, Triticum aestivum; parameters: key to Wheat plant response rating: 0 = no effect, 100 = complete control; conditions: scale 0 (no effect) to 100 (complete control)
Procedure, shortened: (§3)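 Formulated test chemicals went onto postemergence plants measuring 2 to 18 cm, at one to four leaves. For the paddy assay, species had reached two leaves. Scoring took place 13–15 days later by eye, relative to untreated plants, using 0 for no effect up to 100 for full control.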

[4] = tested on: pigweed; assay: Test B pre-/postemergence herbicide test; format: in vivo, Amaranthus retroflexus
Procedure, shortened: as §2

[5] = tested on: Surinam grass; assay: Test B pre-/postemergence herbicide test; format: in vivo, Urochloa decumbens
Procedure, shortened: as §2

[6] = tested on: large crabgrass; assay: Test B pre-/postemergence herbicide test; format: in vivo, Digitaria sanguinalis
Procedure, shortened: as §2

[7] = tested on: small flower umbrella sedge; assay: Test B flooded paddy test; format: in vivo, Cyperus difformis; conditions: 1000 g ai/ha, visual rating, scale 0 to 100 (0 no effect, 100 complete control), 13 to 15 days
Procedure, shortened: as §1

[8] = tested on: barnyardgrass; assay: Test B pre-/postemergence herbicide test; format: in vivo, Echinochloa crus-galli
Procedure, shortened: (§4)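 Response was scored visually 13 to 15 days after treatment against untreated greenhouse controls, 0 meaning no effect and 100 complete control. Formulations (solvent mixture plus surfactant) went onto soil after planting, onto foliage of 1- to 4-leaf plants, and onto 2-leaf plants in a flooded paddy set including rice and barnyardgrass.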

[9] = tested on: ducksalad; assay: Test B flooded paddy test; format: in vivo, Heteranthera limosa; conditions: 1000 g ai/ha, visual rating, scale 0 to 100 (0 no effect, 100 complete control), 13 to 15 days
Procedure, shortened: as §1

[10] = tested on: blackgrass; assay: Test B postemergence herbicide test; format: in vivo, Alopecurus myosuroides; conditions: scale 0 (no effect) to 100 (complete control)
Procedure, shortened: as §1

[11] = tested on: corn; assay: Test B pre-/postemergence herbicide test; format: in vivo, Zea mays
Procedure, shortened: as §2

[12] = tested on: cocklebur; assay: Test B pre-/postemergence herbicide test; format: in vivo, Xanthium strumarium
Procedure, shortened: as §4

[13] = tested on: rice; assay: Test B flooded paddy test; format: in vivo, Oryza sativa; conditions: 1000 g ai/ha, visual rating, scale 0 to 100 (0 no effect, 100 complete control), 13 to 15 days
Procedure, shortened: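 Treated at 2-leaf (paddy) or 1–4-leaf, 2–18 cm (postemergence); greenhouse 13–15 d; visual score vs control, 0 none to 100 complete control; dash = not tested.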

[14] = tested on: morningglory; assay: Test B pre-/postemergence herbicide test; format: in vivo, Ipomoea coccinea
Procedure, shortened: as §4

[15] = tested on: giant foxtail; assay: Test B pre-/postemergence herbicide test; format: in vivo, Setaria faberi
Procedure, shortened: as §2

[16] = tested on: wild oat; assay: Test B postemergence herbicide test; format: in vivo, Avena fatua; conditions: scale 0 (no effect) to 100 (complete control)
Procedure, shortened: as §3

[17] = Postemergence, 500 g ai/ha, visual rating after 13 to 15 days, scale 0 (no effect) to 100 (complete control)
[18] = Preemergence, 500 g ai/ha, scale 0 to 100
[19] = postemergence, 125 g ai/ha, visual rating, scale 0 (no effect) to 100 (complete control)
[20] = preemergence, 125 g ai/ha, 0 to 100 scale, 0 is no effect, 100 is complete control
[21] = Postemergence, 500 g ai/ha, visual rating after 13 to 15 days
[22] = postemergence, 125 g ai/ha, visual rating

C#CCn1nc(C(C)(C)C)cc1C(=O)Nc1cccc(C(=O)NCC)c1 [Compound 50]
Barnyardgrass plant response rating [1]: 70
Plant response rating, Lambsquarters [2, 17]: 90
Lambsquarters plant response rating [2, 18]: 100
Lambsquarters plant response rating [2, 19]: 80
Plant response rating, Lambsquarters [2, 20]: 90
Plant response rating, Wheat [3, 21]: 30
Wheat plant response rating [3, 22]: 30
Plant response rating, Pigweed [4, 17]: 100
Pigweed plant response rating [4, 18]: 100
Pigweed plant response rating [4, 19]: 80
Plant response rating, Pigweed [4, 20]: 100
Plant response rating, Surinam Grass [5, 17]: 40
Surinam Grass plant response rating [5, 18]: 50
Surinam Grass plant response rating [5, 19]: 30
Plant response rating, Surinam Grass [5, 20]: 20
Plant response rating, Crabgrass, Large [6, 17]: 30
Crabgrass, Large plant response rating [6, 18]: 90
Crabgrass, Large plant response rating [6, 19]: 10
Plant response rating, Crabgrass, Large [6, 20]: 30
Sedge, Umbrella plant response rating [7]: 80
Plant response rating, Barnyardgrass [8, 17]: 70
Barnyardgrass plant response rating [8, 18]: 80
Barnyardgrass plant response rating [8, 19]: 50
Plant response rating, Barnyardgrass [8, 20]: 40
Ducksalad plant response rating [9]: 70
Plant response rating, Blackgrass [10, 21]: 30
Blackgrass plant response rating [10, 22]: 20
Plant response rating, Corn [11, 17]: 40
Corn plant response rating [11, 18]: 10
Corn plant response rating [11, 19]: 30
Plant response rating, Corn [11, 20]: 0
Plant response rating, Cocklebur [12, 17]: 90
Cocklebur plant response rating [12, 18]: 0
Cocklebur plant response rating [12, 19]: 90
Plant response rating, Cocklebur [12, 20]: 0
Rice plant response rating [13]: 60
Plant response rating, Morningglory [14, 17]: 70
Morningglory plant response rating [14, 18]: 40
Morningglory plant response rating [14, 19]: 70
Plant response rating, Morningglory [14, 20]: 10
Plant response rating, Foxtail, Giant [15, 17]: 30
Foxtail, Giant plant response rating [15, 18]: 100
Foxtail, Giant plant response rating [15, 19]: 30
Plant response rating, Foxtail, Giant [15, 20]: 20
Plant response rating, Oat, Wild [16, 21]: 20
Oat, Wild plant response rating [16, 22]: 20
